Patent US11293927B2, “Screening methods for PARP modulators” (Ribon Therapeutics, Inc., priority 2018, dated 2022)
pIC50: −log10 of the molar value.

Columns and labels:
[1] = target: T1, PARP15 (Homo sapiens, UniProt Q460N3); experiment: In vitro TR-FRET probe displacement assay (Probe C), PARP15; format: binding; conditions: TR-FRET displacement of Probe C, PARP15 residues 481-678
T1 construct: made in house; host or cells: Sf9
T1 sequence (Q460N3 481-678): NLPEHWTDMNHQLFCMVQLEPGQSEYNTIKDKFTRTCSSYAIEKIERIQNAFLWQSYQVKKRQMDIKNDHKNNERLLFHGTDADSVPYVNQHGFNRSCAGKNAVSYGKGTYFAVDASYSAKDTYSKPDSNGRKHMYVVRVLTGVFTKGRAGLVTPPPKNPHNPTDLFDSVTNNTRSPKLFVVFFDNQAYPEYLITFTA
Description: A portion of PARP15 (residues 481 to 678 of NP_689828.1 (SEQ ID NO: 5), GenBank Accession No. NM_152615) was overexpressed in Sf9 cells. An N-terminal fusion tag, […] (SEQ ID NO: 10), was used to purify the protein from cell lysates. The fusion tag was left on the protein for use in the probe displacement assay.
Displacement of a Probe C binding to monoPARP active sites was measured using a time-resolved fluorescence resonance energy transfer (TR-FRET) assay. 20 nL of a dose response curve of each test compound was spotted in black 384-well polystyrene proxiplates (Perkin Elmer) using a Mosquito (TTP Labtech). Reactions were performed in a 8 μL volume by adding 6 μL of the monoPARP and Probe C in assay buffer (20 mM HEPES pH=8, 100 mM NaCl, 0.1% bovine serum albumin, 2 mM DTT and 0.002% Tween20), incubating with test compound at 25° C. for 30 min, then adding 2 μL of ULight-streptavidin and LANCE Eu-W 1024 Anti-6×His (Perkin Elmer). Binding reactions were equilibrated at 25° C. for an additional 30 min, then read on an Envision platereader equipped with a LANCE/DELFIA top mirror (Perkin Elmer) using excitation of 320 nm and emission of 615 nm and […] with a 90 μs delay. The ratio of the 665/615 nm emission were calculated for each well to determine the amount of complex of monoPARP and Probe C in each well. […]

[2] = target: T2, PARP14 (Homo sapiens, UniProt Q460N5); experiment: NanoBRET probe displacement assay (Probe A) in live 293T cells, PARP14; format: cell-based; conditions: NanoBRET displacement of Probe A, NanoLuc-tagged PARP14 in live 293T cells
T2 sequence (Q460N5 1611-1801): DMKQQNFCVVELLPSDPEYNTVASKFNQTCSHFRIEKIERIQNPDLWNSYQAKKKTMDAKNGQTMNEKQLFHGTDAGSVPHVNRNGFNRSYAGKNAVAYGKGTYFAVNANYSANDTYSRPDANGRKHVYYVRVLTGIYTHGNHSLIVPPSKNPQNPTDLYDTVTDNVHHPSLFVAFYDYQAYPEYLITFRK
Description: MonoPARP genes from Table 5 were cloned into the pcDNA3.1-mammalian expression vector as a NanoLuc fusion with NanoLuc on the N- or C-terminus as indicated. The sequence of the NanoLuc tag is as follows: [table] Displacement of a fluorescently-labeled compound Probe A binding to NanoLuc-tagged monoPARP enzymes was measured in live cells using a bioluminescence resonance energy transfer (NanoBRET) assay. TIPARP, PARP10, PARP12 or PARP14 fused to a NanoLuc tag were overexpressed in 293T cells (ATCC) using the plasmids described herein. Plasmid DNA and empty vector DNA were added to phenol red free OptiMEM (Thermo Fisher) as shown in Table 6 in a total volume of 2.456 mL. 157 μL of Fugene HD (Promega) was added to the DNA mixture and allowed to incubate 5 min at 25° C. [table] Next, 2.375 mL of the plasmid-Fugene mixture were added to 20 million 293T cells in DMEM (Thermo Fisher) supplemented with 10% FBS (VWR). The transfection was incubated for 24 h at 37° C. in an incubator containing air supplemented with 5% CO2. The cells were resuspended in phenol red free OptiMEM media. 40 μL of cells were then added to white polystyrene 384-well non-binding surface microplate (Corning). […] Filtered luminescence was measured on an Envision (Perkin Elmer) equipped with a dual 585 nm mirror, 460±40 nm bandpass filter (donor) and 610±50 nm longpass filter (acceptor). […]

pIC50 [1]: 7.22
pIC50 [2]: 7.52
SMILES: O=c1[nH]ncc(N2Cc3ccc(OC4CCNCC4)cc3C2)c1C(F)(F)F [Compound A, 5-[5-(Piperidin-4-yloxy)-2,3-dihydro-1H-isoindol-2-yl]-4-(trifluoromethyl)-2,3-dihydropyridazin-3-one]
